From article PMC6298923, “P2Y2 and P2Y6 receptor activation elicits intracellular calcium responses in human adipose-derived mesenchymal stromal cells” (Purinergic Signalling, 2018)

Assays:
P2Y6 receptor = target: T1, P2Y6 receptor (Homo sapiens, UniProt Q15077); settings: antagonist against […] ADP; peak magnitude; cells do not respond to UDP up to […]; […] °C, pH […]
T1 construct: gene P2RY6

P2Y2 receptor = target: T2, P2Y2 receptor (Homo sapiens, UniProt P41231); test: Fura-2 intracellular calcium, FlexStation, native AD-MSCs; assay type: cell-based; settings: agonist; peak calcium response; […] °C, pH […] extracellular Ca2+; receptor assigned by antagonist
T2 construct: gene P2RY2; native endogenous receptor in primary human adipose-derived mesenchymal stromal cells (female donors)
Excerpt: Fura-2 intracellular calcium, FlexStation, native AD-MSCs on P2Y2 receptor

T2 sequence (P41231 whole entry): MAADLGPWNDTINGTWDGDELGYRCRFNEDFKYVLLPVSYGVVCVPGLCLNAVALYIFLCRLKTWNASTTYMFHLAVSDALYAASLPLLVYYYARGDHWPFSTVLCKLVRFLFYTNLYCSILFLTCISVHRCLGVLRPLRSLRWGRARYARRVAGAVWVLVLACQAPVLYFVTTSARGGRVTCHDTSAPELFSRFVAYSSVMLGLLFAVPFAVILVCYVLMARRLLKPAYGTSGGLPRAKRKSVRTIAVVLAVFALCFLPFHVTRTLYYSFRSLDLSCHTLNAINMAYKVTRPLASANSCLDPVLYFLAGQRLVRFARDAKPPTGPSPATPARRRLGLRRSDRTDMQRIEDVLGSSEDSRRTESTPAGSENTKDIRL
T1 sequence (Q15077 whole entry): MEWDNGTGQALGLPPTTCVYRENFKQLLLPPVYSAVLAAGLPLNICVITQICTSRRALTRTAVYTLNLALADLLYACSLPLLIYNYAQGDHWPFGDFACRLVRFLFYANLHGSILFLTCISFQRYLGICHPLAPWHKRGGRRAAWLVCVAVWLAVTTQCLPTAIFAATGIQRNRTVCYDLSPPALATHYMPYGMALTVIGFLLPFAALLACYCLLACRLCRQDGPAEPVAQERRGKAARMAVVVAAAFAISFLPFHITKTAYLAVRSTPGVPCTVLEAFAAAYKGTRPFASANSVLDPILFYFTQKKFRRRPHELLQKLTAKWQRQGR

EC50 (P2Y2 receptor) [µM] | Structure (SMILES) | IC50 (P2Y6 receptor) [µM]
– | S=C=Nc1cccc(NC(=S)NCCCCNC(=S)Nc2cccc(N=C=S)c2)c1 [MRS2578] | 0.437 ± 0.133
3.24 ± 2.8 | O=c1ccn([C@@H]2O[C@H](COP(=O)(O)OP(=O)(O)OP(=O)(O)O)[C@@H](O)[C@H]2O)c(=O)[nH]1 [UTP] | –
2.24 ± 1.1 | Nc1ncnc2c1ncn2[C@@H]1O[C@H](COP(=O)(O)OP(=O)(O)OP(=O)(O)O)[C@@H](O)[C@H]1O [ATP] | –
